The text below walks through data of publication PMC11188305, “Reproductive and fetal toxicity studies of histamine H3 receptor antagonist DL76 used in mice to prevent maximal electroshock-induced seizure” (Frontiers in Pharmacology, 2024).

Data set [1] deals with experimental seizure models. Details: method as in earlier work. The following applies: acute and chronic experimental seizure models; ref Brown et al., 2001; Vohora et al., 2010; Witkin and Nelson, 2004; Sadek et al., 2015; Bastaki et al., 2018; cited from earlier work.
Data set [2] has as its system photosensitivity seizure model. On the set-up: method as in Lamb, 2020. The following applies: adult patients; ref Lamb, 2020; cited from earlier work.
Data set [3] deals with MES-induced seizures in mice. Description: Maximal electroshock (MES)-induced seizure, duration of tonic hind limb extension (THLE). The class given is in vivo, C57BL/6J mice. The source says: As previously described and with a slight modification in the intensity applied, seizures were elicited in mice with a 50-Hz alternating current of 120 mA intensity ([Kaminski et al., 2015]; [Song et al., 2020]; [Xiao et al., 2021]; [Hua et al., 2023]). The current was applied through ear electrodes for 0.2 s. Protection against the spread of MES-induced convulsion was defined as the abolition of the tonic hind limb extension (THLE) component of the seizure ([Kaminski et al., 2015]; [Song et al., 2020]; [Xiao et al., 2021]; [Hua et al., 2023]). The animals were divided into the following experimental groups, with eight mice in each: the control group injected with saline, the positive control group injected with 300 mg/kg of VPA (the minimal dose of VPA that protected animals against the spread of MES-induced convulsions without mortality in mice) ([Sadek et al., 2015]; [Bastaki et al., 2018]), and four groups that were administered the test compound DL76 at doses of 7.5 mg/kg, 15 mg/kg, 30 mg/kg, or 60 mg/kg. All drugs were administered 30–45 min before the MES challenge. In a further group of eight mice, the most promising and protective dose of DL76 (60 mg/kg, i.p.) was co-injected with RAM (10 mg/kg, i.p.), 30 min apart and 15 min prior to the MES test. Protection against the spread of MES-induced convulsion was defined as the abolition of the THLE component of the convulsion ([Sadek et al., 2015]; [Alachkar et al., 2018]; [Bastaki et al., 2018]).
Statistical analyses employed SPSS 26.0 (IBM Middle East, Dubai, UAE). Data were presented as means ± SEM. […] Fetal abnormality data were presented as counts and percentages. Fisher’s exact test compared the percentages of abnormalities between the control group (saline) and the different dose groups. All tests were two-tailed, and significance was set at p < 0.05.
A general note: The maximal electroshock test induces tonic seizures with an electrical stimulus.

The subject of data set [4] is C57BL/6 mice. On the set-up: method as in Chateauvieux et al., 2010. To be noted: ref Chateauvieux et al., 2010; cited from earlier work.
Data set [5] relates to MES-induced seizures in mice. Details: method as in Sadek et al., 2015; Bastaki et al., 2018. To be noted: ref Sadek et al., 2015, Bastaki et al., 2018; cited from earlier work.

Regarding `CCC(C)(C)c1ccc(OCCCN2CCCCC2)cc1` [DL77], the anticonvulsant efficacy result in data set [1] is given as “anticonvulsant efficacy”.
In the case of `Clc1ccc(CCCOCCCN2CCCCC2)cc1` [PIT], the “effects against the photosensitivity seizure model” value in data set [2] is “protective effects”.
Consider `C[C@@H](N)Cc1c[nH]cn1` [RAM, (R)-α-methylhistamine, reference compound], for which the “effect of RAM alone on MES-induced convulsions” value in data set [3] (female adult mice, RAM 10 mg/kg i.p., p = 0.91 saline-saline vs. saline-RAM) is recorded as “results similar to those witnessed in male adult mice”. Moreover, in data set [3] (male adult mice, RAM 10 mg/kg i.p., p = 0.602), the “effect on MES-induced convulsions when injected alone” value was “did not affect MES-induced convulsions”. Besides, the “activity of RAM injected alone in MES-induced convulsion” value in data set [3] (mice, both sexes, RAM 10 mg/kg) was “neither a protective nor an epileptogenic activity”.
In the case of `CCCC(CCC)C(=O)O` [VPA, valproic acid, reference compound], the malformations result in data set [4] is “induce malformations”. Further, the “minimal dose that protected animals against the spread of MES-induced convulsions without mortality” value in data set [5] is given as 300 mg/kg. Besides, the “difference of protective effects between male and female mice” value in data set [3] (VPA 300 mg/kg i.p., p = 0.164) is “no significant differences”. The “protection against MES-induced convulsions” value in data set [3] (female adult mice, VPA 300 mg/kg i.p.) is listed as “significantly protected”.
On to `S=C(NC1CCCCC1)N1CCC(c2cnc[nH]2)CC1` [thioperamide], for which the anticonvulsant efficacy result in data set [1] is listed as “anticonvulsant efficacy”.
